Reference: EP3860599B1, “(+)-ALPHA-DIHYDROTETRABENAZINE DOSAGE REGIMEN FOR TREATING MOVEMENT DISORDERS” (Adeptio Pharmaceuticals Limited, priority 2018, dated 2020)
Like-named read-outs stand apart in the source and are kept apart here.

What was measured:
Type in all cases: in vivo
[1] = Plasma concentrations up to 7 hours after oral dosing of human volunteers, Example 1B; details: 7.5 mg
Protocol: Volunteers 1 and 2 were the same as volunteers 1 and 2 in Example 1A described above. […] In addition, in all volunteers PET scans were initiated at 6 hours after drug administration and these were stopped at 7 hours after drug administration. […]

amphetamine-induced rats = test: Open field locomotor activity test in amphetamine-induced rats (Example 2, Studies 1, 2 and 4)
Protocol: All animal experiments were carried out according to the National Institute of Health (NIH) guidelines for the care and use of laboratory animals, and approved by the National Animal Experiment Board, Finland. Male CD (Charles River Laboratories, Germany) at weight range of 200-250 g (165-200 g upon arrival) were used for the experiments. Animals were housed at a standard temperature (22 ± 1°C) and in a light-controlled environment (lights on from 7 am to 8 pm) with ad libitum access to food and water.
Locomotor activity of the rats was tested in open field arena. The open field test was performed during the rat light cycle and under a normal lighting evenly distributed to the test chambers. The paths of the rats were recorded by activity monitor (Med. Associates Inc.).
Dosing the vehicle, vehicle-amphetamine, (+)-α-DHTBZ or risperidone was done prior to LMA test. The rats were placed in the centre of the arena, and the path was recorded for 60 minutes.
Animals were grouped as follows: • Group 1: 10 rats treated with Vehicle (t= 0 min) and Vehicle (t= 30 min) • Group 2: 10 rats treated with Vehicle (t= 0 min) and Amphetamine (t= 30 min) • Group 3: 10 rats treated with (+)-α-DHTBZ 0.5 mg/kg (t=0 min) and Amphetamine (t= 30 min) • Group 4: 10 rats treated with (+)-α-DHTBZ 1 mg/kg (t=0 min) and Amphetamine (t= 30 min) • Group 5: 10 rats treated with (+)-α-DHTBZ 1.5 mg/kg (t=0 min) and Amphetamine (t= 30 min) • Group 6: 10 rats treated with (+)-α-DHTBZ 2 mg/kg (t=0 min) and Amphetamine (t= 30 min) • Group 7: 10 rats treated with risperidone 1 mg/kg (t=0 min) and Amphetamine (t= 30 min)
Animals were grouped as follows: • Group 1: 10 rats treated with Vehicle (t= 0 min) and Vehicle (t= 30 min) • Group 2: 10 rats treated with Vehicle (t= 0 min) and Amphetamine (t= 30 min) • Group 3: 10 rats treated with (+)-α-DHTBZ 0.1 mg/kg (t=0 min) and Amphetamine (t=30 min) • Group 4: 10 rats treated with (+)-α-DHTBZ 0.25 mg/kg (t=0 min) and Amphetamine (t=30 min) • Group 5: 10 rats treated with risperidone 1 mg/kg (t=0 min) and Amphetamine (t= 30 min)
Animals were grouped as follows: • Group 1: 10 rats treated with Vehicle (t= 0 min) and Vehicle (t= 30 min) • Group 2: 10 rats treated with Vehicle (t= 0 min) and Amphetamine (t= 30 min) • Group 3: 10 rats treated with (+)-α-DHTBZ 1 mg/kg (t=0 min) and Amphetamine (t=30 min) • Group 4: 10 rats treated with (+)-α-DHTBZ 1.5 mg/kg (t=0 min) and Amphetamine (t=30 min) • Group 5: 10 rats treated with Valbenazine 1 mg/kg (t=0 min) and Amphetamine (t=30 min) • Group 6: 10 rats treated with Valbenazine 1.5 mg/kg (t=0 min) and Amphetamine (t=30 min) • Group 7: 10 rats treated with risperidone 1 mg/kg (t=0 min) and Amphetamine (t= 30 min)

VMAT2 = target: T1, VMAT2 (Homo sapiens, UniProt Q05940); test: % VMAT2 blocking in caudate and putamen by PET scan 6-7 hours after oral dosing, Example 1B; details: for receptor occupancy at 7.5 mg: po, 7.5 mg oral, PET scan 6-7 hours after administration
T1 construct: from tissue
Description: Complete blocking of VMAT2 is considered undesirable as this can lead to unwanted side effects, such as Parkinsonism. […] The levels of VMAT2 blocking can be determined by competitive binding studies using Positron Emission Tomography (PET). By co-administering a radioactive ligand with the compound of interest at various concentrations, the proportion of binding sites occupied can be determined (see for example, Matthews et al., "Positron emission tomography molecular imaging for drug development", Br. J. Clin. Pharmacol., 73:2, 175-186).
Volunteers 1 and 2 were the same as volunteers 1 and 2 in Example 1A described above. […] Blood sample were taken from all volunteers at 2, 4, 6 and 7 hours after drug administration. In addition, in all volunteers PET scans were initiated at 6 hours after drug administration and these were stopped at 7 hours after drug administration.

[2] = po, Example 1B subject 1 (112 kg), 7.5 mg oral
[3] = po, Example 1B subject 2 (76 kg), 7.5 mg oral
[4] = po, Example 1B subject 3 (76 kg), 7.5 mg oral
[5] = po, Example 1B subject 4 (95 kg), 7.5 mg oral
[6] = po, Example 1B subject 5 (99 kg), 7.5 mg oral
[7] = po, Example 1B subject 6 (107 kg), 7.5 mg oral
[8] = Study 1 conclusions, all the tested doses (0.5, 1, 1.5 and 2 mg/kg)

T1 sequence (Q05940 whole entry): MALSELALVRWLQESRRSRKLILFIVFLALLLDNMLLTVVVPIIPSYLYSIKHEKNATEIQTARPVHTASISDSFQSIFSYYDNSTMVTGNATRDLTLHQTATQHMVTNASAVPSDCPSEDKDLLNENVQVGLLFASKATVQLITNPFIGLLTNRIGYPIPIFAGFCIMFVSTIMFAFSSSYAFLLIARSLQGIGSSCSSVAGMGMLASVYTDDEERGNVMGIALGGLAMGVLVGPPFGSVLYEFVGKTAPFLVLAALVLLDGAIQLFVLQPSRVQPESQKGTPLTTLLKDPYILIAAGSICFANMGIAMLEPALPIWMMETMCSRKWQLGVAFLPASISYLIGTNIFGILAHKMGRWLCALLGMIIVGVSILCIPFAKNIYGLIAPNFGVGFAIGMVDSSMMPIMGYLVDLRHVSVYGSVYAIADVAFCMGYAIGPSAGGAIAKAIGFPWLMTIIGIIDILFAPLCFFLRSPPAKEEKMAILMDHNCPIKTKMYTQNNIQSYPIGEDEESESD

COc1cc2c(cc1OC)[C@H]1C[C@@H](O)[C@H](CC(C)C)CN1CC2 [(+)-α-dihydrotetrabenazine, (R,R,R)-3-isobutyl-9,10-dimethyloxy-1,3,4,5,7,11b-hexahydro-2H-pyrido[2,1-a]isoquinolin-2-ol]
concentration at 6 h ([1]; oral, after 6 hours following administration of 7.5mg, read-out: blood plasma concentrations): < 15 ng/mL
concentration at 2 h [1, 2]: 8.7 ng/mL
concentration at 4 h [1, 2]: 6.01 ng/mL
concentration at 6 h ([1]; po, Example 1B subject 1 (112 kg), 7.5 mg oral, 6 h, read-out: plasma concentrations): 4.54 ng/mL
concentration at 7 h [1, 2]: 3.65 ng/mL
concentration at 2 h [1, 3]: 11.7 ng/mL
concentration at 4 h [1, 3]: 17.5 ng/mL
concentration at 6 h ([1]; po, Example 1B subject 2 (76 kg), 7.5 mg oral, 6 h, read-out: plasma concentrations): 13.4 ng/mL
concentration at 7 h [1, 3]: 11.6 ng/mL
concentration at 2 h [1, 4]: 12.8 ng/mL
concentration at 4 h [1, 4]: 7.92 ng/mL
concentration at 6 h ([1]; po, Example 1B subject 3 (76 kg), 7.5 mg oral, 6 h, read-out: plasma concentrations): 5.57 ng/mL
concentration at 7 h [1, 4]: 4.84 ng/mL
concentration at 1 h [1, 5]: 21.4 ng/mL
concentration at 2 h [1, 5]: 13.9 ng/mL
concentration at 3 h [1, 5]: 10.6 ng/mL
concentration at 4 h [1, 5]: 7.81 ng/mL
concentration at 5 h [1, 5]: 6.59 ng/mL
concentration at 6 h ([1]; po, Example 1B subject 4 (95 kg), 7.5 mg oral, 6 h, read-out: plasma concentrations): 4.92 ng/mL
concentration at 7 h [1, 5]: 4.91 ng/mL
concentration at 1 h [1, 6]: 5.64 ng/mL
concentration at 2 h [1, 6]: 7.59 ng/mL
concentration at 3 h [1, 6]: 5.84 ng/mL
concentration at 4 h [1, 6]: 4.58 ng/mL
concentration at 5 h [1, 6]: 3.66 ng/mL
concentration at 6 h ([1]; po, Example 1B subject 5 (99 kg), 7.5 mg oral, 6 h, read-out: plasma concentrations): 3.35 ng/mL
concentration at 7 h [1, 6]: 2.47 ng/mL
concentration at 1 h [1, 7]: 4.86 ng/mL
concentration at 2 h [1, 7]: 6.3 ng/mL
concentration at 3 h [1, 7]: 6.69 ng/mL
concentration at 4 h [1, 7]: 5.61 ng/mL
concentration at 5 h [1, 7]: 5.19 ng/mL
concentration at 6 h ([1]; po, Example 1B subject 6 (107 kg), 7.5 mg oral, 6 h, read-out: plasma concentrations): 4.44 ng/mL
concentration at 7 h [1, 7]: 3.36 ng/mL
locomotor activity when compared to the vehicle-amphetamine group (amphetamine-induced rats; [8]): lower locomotor activity
stereotypic behaviour when compared to the vehicle-amphetamine group (amphetamine-induced rats; [8]): reduced stereotypic behaviour
locomotor activity when compared to the vehicle-amphetamine group (amphetamine-induced rats; Study 2 conclusions, 0.25 mg/kg): lower locomotor activity
stereotypic behaviour when compared to the vehicle-amphetamine group (amphetamine-induced rats; Study 2 conclusions, both the tested doses (0.1 mg/kg and 0.25 mg/kg)): reduced stereotypic behaviour
locomotor activity when compared to the vehicle-amphetamine group and the corresponding dose of Valbenazine (amphetamine-induced rats; Study 4 conclusions, 1 mg/kg and 1.5 mg/kg): lower locomotor activity
stereotypic behaviour when compared to the vehicle-amphetamine group and the corresponding dose of Valbenazine (amphetamine-induced rats; Study 4 conclusions, both the tested doses (1 mg/kg and 1.5 mg/kg)): reduced stereotypic behaviour
% VMAT2 blocking (VMAT2; after 6 hours following administration of 7.5mg): greater than 30%
difference between the %VMAT2 blocking levels in the caudate and putamen regions of the striatum (VMAT2; each subject, 7.5 mg): No significant difference
receptor occupancy at 7.5 mg (VMAT2; Example 1B subject 1 (112 kg), read-out: %VMAT2 Occupancy Caudate): 38%
receptor occupancy at 7.5 mg (VMAT2; Example 1B subject 1 (112 kg), read-out: %VMAT2 Occupancy Putamen): 39%
receptor occupancy at 7.5 mg (VMAT2; Example 1B subject 2 (76 kg), read-out: %VMAT2 Occupancy Caudate): 65%
receptor occupancy at 7.5 mg (VMAT2; Example 1B subject 2 (76 kg), read-out: %VMAT2 Occupancy Putamen): 63%
receptor occupancy at 7.5 mg (VMAT2; Example 1B subject 3 (76 kg), read-out: %VMAT2 Occupancy Caudate): 41%
receptor occupancy at 7.5 mg (VMAT2; Example 1B subject 3 (76 kg), read-out: %VMAT2 Occupancy Putamen): 42%
receptor occupancy at 7.5 mg (VMAT2; Example 1B subject 4 (95 kg), read-out: %VMAT2 Occupancy Caudate): 34%
receptor occupancy at 7.5 mg (VMAT2; Example 1B subject 4 (95 kg), read-out: %VMAT2 Occupancy Putamen): 32%
receptor occupancy at 7.5 mg (VMAT2; Example 1B subject 5 (99 kg), read-out: %VMAT2 Occupancy Caudate): 36%
receptor occupancy at 7.5 mg (VMAT2; Example 1B subject 5 (99 kg), read-out: %VMAT2 Occupancy Putamen): 36%
receptor occupancy at 7.5 mg (VMAT2; Example 1B subject 6 (107 kg), read-out: %VMAT2 Occupancy Caudate): 44%
receptor occupancy at 7.5 mg (VMAT2; Example 1B subject 6 (107 kg), read-out: %VMAT2 Occupancy Putamen): 49%
reduction of level of blocking after 6-7 hours compared to the %VMAT2 blocking after 1-2 hours following administration (VMAT2; subject 1, 7.5 mg): 30%
reduction of level of blocking after 6-7 hours compared to the %VMAT2 blocking after 1-2 hours following administration (VMAT2; subject 2, 7.5 mg): 11%
